Reference: ChEMBL document CHEMBL3045202, “Synthesis of some bisindolyl analogs for in vitro cytotoxic and DNA cleavage studies” (Med Chem Res, 2013)
Calls of active or inactive are those of the source. The calls are words filed in the database; no cut-off is given here.

Assays:
[1] = test system: Escherichia coli; experiment: Induction of DNA cleavage in Escherichia coli at 1 ug/ml after 2 hr by agarose gel electrophoretic analysis
[2] = test system: HeLa; experiment: Cytotoxicity against Homo sapiens (human) HeLa cells by MTT assay; type: functional, cell-based
[3] = test system: A549; experiment: Cytotoxicity against Homo sapiens (human) A549 cells by MTT assay; type: functional, cell-based
[4] = test system: HEp-2; experiment: Cytotoxicity against Homo sapiens (human) Hep2 cells by MTT assay; type: functional, cell-based

Activity [1]	SMILES	IC50 [2] [µM]	IC50 [3] [µM]	IC50 [4] [µM]
Active	CC1=NNC(=O)C1C(c1c[nH]c2ccccc12)c1c(-c2ccccc2)[nH]c2ccc(C)cc12 (stereo not drawn)	2.4	1.3	3.2
–	CC1=NNC(=O)C1C(c1c(-c2ccccc2)[nH]c2ccc(C)cc12)c1c(-c2ccccc2)[nH]c2ccc(C)cc12 (stereo not drawn)	32.7	37	> 100
Active	COc1ccc2[nH]c(-c3ccccc3)c(C(c3c(-c4ccccc4)[nH]c4ccc(C)cc34)C3C(=O)NN=C3C)c2c1 (stereo not drawn)	> 100	1.8	3.5
–	COc1cccc2c1C(=O)c1c(O)c3c(c(O)c1C2=O)C[C@@](O)(C(=O)CO)C[C@@H]3O[C@H]1C[C@H](N)[C@H](O)[C@H](C)O1 [DOXORUBICIN]	0.71	–	–
Active	COc1ccc2[nH]c(-c3ccccc3)c(C(c3c(-c4ccccc4)[nH]c4ccc(Cl)cc34)C3C(=O)NN=C3C)c2c1 (stereo not drawn)	1.2	1.1	6.2
–	CC1=NNC(=O)C1C(c1c[nH]c2ccccc12)c1c(-c2ccccc2)[nH]c2ccc(Cl)cc12 (stereo not drawn)	3.8	1.6	> 100
Active	CC1=NNC(=O)C1C(c1c(-c2ccccc2)[nH]c2ccccc12)c1c(-c2ccccc2)[nH]c2ccc(Cl)cc12 (stereo not drawn)	29.8	31.3	41.7
–	CC1=NNC(=O)C1C(c1c(-c2ccccc2)[nH]c2ccccc12)c1c(-c2ccccc2)[nH]c2ccc(C)cc12 (stereo not drawn)	> 100	22.1	> 100
–	CC1=NNC(=O)C1C(c1c(-c2ccccc2)[nH]c2ccc(C)cc12)c1c(-c2ccccc2)[nH]c2ccc(Cl)cc12 (stereo not drawn)	> 100	35	32.4
–	CC1=NNC(=O)C1C(c1c[nH]c2ccccc12)c1c(-c2ccccc2)[nH]c2ccccc12 (stereo not drawn)	7.7	5.5	6.7
–	COc1ccc2[nH]c(-c3ccccc3)c(C(c3c[nH]c4ccccc34)C3C(=O)NN=C3C)c2c1 (stereo not drawn)	1.7	2.7	5.3
–	CC1=NNC(=O)C1C(c1c(-c2ccccc2)[nH]c2ccc(Cl)cc12)c1c(-c2ccccc2)[nH]c2ccc(Cl)cc12 (stereo not drawn)	9.5	7	14.6
